# According to patent US4863748A, “Dietary products and uses comprising methylsulfonylmethane” (priority 1986, dated 1989):
# Assays:
# [1] = tested on: rheumatoid arthritis and other intense pain-producing disease; test: Intravenous administration in acute intense pain-producing disease; type: in vivo, human
# From the text: In U.S. Pat. No. 4,296,130, I teach that methylsulfonylmethane is so inert and non-toxic that aqueous solutions thereof can be used as a blood diluent. In healthy humans or other animals having adequately high methylsulfonylmethane blood levels, methylsulfonylmethane is in fact "inert" in the sense the term is used in that patent. However, in acutely ill patiets, dramatic beneficial benefits are often obtained by the intravenous administration of large doses of methylsulfonylmethane. For example, rheumatoid arthritic patients suffering from a flair-up of the disease which produces intense pain or crippling swelling of the joints or both achieve prompt relief, even those patients who obtain only minimal or delayed benefits from oral ingestion of methylsulfonylmethane.
# Apparently, when a patient is in an acute stage of intense pain-producing disease, such as rheumatoid arthritis, osteoporosis, degenerative disc syndrome, an autoimmune disease or metathesized carcinoma, which produces intense pain, the relief from pain from oral ingestion of methylsulfonylmethane is sometimes too subtle or takes too long for the patient to obtain reasonably prompt subjective benefits therefrom.
# Therefore, in one aspect this invention relates to a method for rapidly ameliorating at least the pain associated with an intense pain-producing disease by the intravenous administration of methylsulfonylmethane in an amount effective to ameliorate the pain.
# The amount of methylsulfonylmethane intravenously administered can vary substantially because of its lack of toxicity and adverse side effects. Individual doses can vary from about 0.01 to 2 gm/kg, preferably from about 0.1 to 1 gm/kg, on a body weight basis, the usual dosage range is about 0.25 to 0.75 gm/kg, preferably about 0.5 gm/kg.
# When large amounts are administered, e.g., in the order of 1 g/kg of body weight or more, i.e., infusion of 5% to 10% solution of methylsulfonylmethane in water, physiological saline or 5% dextrose is preferred. The rate of administration is preferably no greater than about 1 gm/kg/hr, although infusion rates as high as 2 gm/kg/hr are tolerated by patients, except for light-headedness of the type experienced by some blood donors is experienced by some patients at this rate.
# For patients suffering from a serious chronic disease, e.g., an acute stage of rheumatoid arthritis or other acute inflammatory conditions or a patient in extreme pain, administer 1 gm/kg of methylsulfonylmethane i.v. as a 14% by wt. solution in sterile 5% dextrose solution, at the rate of 1 gm/kg/hr. Within 2-4 hours, significant subjective relief from the symptoms of the disease or condition is experienced by the patient, with the relief lasting for from 7 to 21 days.
# nail growth = test: Nail growth in dogs (Example 6); type: in vivo, dog (female labradors); conditions: 5% in drinking water, 45 days
# From the text: Rate of nail growth is an indication of the overall health of an animal. To determine the effect of methylsulfonylmethane on nail growth, two litter mate female labradors, age 8.5 months, were maintained in side by side straw bedded cages. Before any testing, the front paws of each dog were embedded in partially set plaster of paris, allowing the animals to exert full body weight, thereby obtaining good clear impressions of paw pads and nail length.
# Each dog was fed Purina dog chow and water ad lib for 45 days. One of the dogs, (Animal A) had no ration change and the other (Animal B) was supplied only with water containing 5% of methylsulfonylmethane dissolved therein. After 45 days, plaster impressions of the front paws of each dog were again taken. Once the plaster had fully hardened the pre- and post-testing castings of each animal were compared. The straw bedding protected both animals from normal nail wear. On visual examination, the nails of Animal B, the animal receiving methylsulfonylmethane in its water, were obviously longer. Upon comparing the castings it was seen that Animal B had nails that averaged about 1/8 inch greater length than those of Animal A.
# weight gain = test: Diet supplement in animals (Example 18); type: in vivo, laboratory animals, including dogs
# From the text: A possible explanation for this is that any minor allergic response to the diet was neutralized by the methylsulfonylmethane.
# leg cramps = test: Night leg cramps in geriatric patient (Example 26); type: in vivo, human; conditions: 10 mg/kg/day
# Procedure: Administer methylsulfonylmethane to a geriatric patient (over 65 years) suffering from chronic night leg cramps at the rate of 10 mg/kg/day, either in tablet or capsule form, as described in parent application Ser. Nos. 418,110, 584,354 or 601,771, or in admixture with one or more foodstuffs ingested daily by the patient, e.g., milk, coffee, tea, cold desserts, etc. Within about 2 days, the leg cramps will diminish in frequency or disappear.
# Giardia lamblia = test: Treatment of Giardia infection in a subject (Example 28(b)); type: in vivo, human; conditions: 500 mg orally three times/24 hours × 14 days
# Procedure: One subject with confirmed Giardia, apparently contacted from contaminated water in a primitive area, was given 500 mg of methylsulfonylmethane orally three times/24 hours×14 days. By the eighth day they were asymptomatic.
# lymphomas = conditions: oral, cited from earlier work
# mammary tumors = conditions: abdominal DMBA; in drinking water; tumors in control animals; cited from earlier work
# [2] = 1 gm/kg i.v., 14% solution in 5% dextrose, 1 gm/kg/hr (Example 34)
# [3] = about 60 and about 500 mg/day/kg body wt.
smiles,measurement,setting,value
CS(C)(=O)=O [methylsulfonylmethane],duration of relief,[1]; [2],7 to 21 days
same,time to significant subjective relief from symptoms,[1]; [2],2 to 4 h
same,time to relief from pain,[1]; i.v.,within hours and often within minutes
same,relief in flare-up of rheumatoid arthritis,"[1]; i.v., large doses",prompt relief
same,duration of remission maintained with oral ingestion after one i.v. administration,"[1]; one i.v., then oral",weeks or months
same,greater average nail length vs Animal A,nail growth,about 1/8
same,fur quality,weight gain; [3],improved
same,nail growth,weight gain; [3],somewhat faster
same,weight gain of immature animals vs controls,weight gain; [3],gained weight at a greater rate
same,weight increases with adult animals,weight gain; comparable feeding experiments,not seen
same,time until leg cramps diminish in frequency or disappear,leg cramps,about 2 days
same,organism in two stool specimens,Giardia lamblia; collected one week apart,free of the organism
same,symptoms by the eighth day,Giardia lamblia; one subject,asymptomatic
same,development of lymphomas,lymphomas; compared with control,significant delay
same,tumor incidence,lymphomas; compared with control,decreased
same,joint involvement,lymphomas; only grossly examined,marked reduction
same,titer of primary IgM and secondary IgG,lymphomas,increased titer
same,development of tumors,mammary tumors,did not develop tumors
